MIC data for 26 compounds are collected here from patent publication US8071592B2 (priority 2006, dated 2011).

Structures can show the parent of a compound that is named as a salt. Where two headings read alike, the source gives them in different places. Some results are limits rather than exact numbers.

The test system of assay [1] is Mycobacterium tuberculosis H37Rv. Nature of the assay: Mycobacterium tuberculosis H37Rv Inhibition Assay (resazurin, MIC). It is filed as cell-based. As to conditions: 144 h. For orientation: Resazurin is reduced to fluorescent resorufin, in cell work by metabolically active cells.
Assay [2] relates to Gram-positive organisms (Staphylococcus aureus, Streptococcus pneumoniae, Streptococcus pyogenes, Enterococcus faecalis, Enterococcus faecium) and …. It counts as cell-based. As to conditions: against a strain of at least one of the organisms listed; tested in at least one exemplified salt form.
[3] abbreviates: ATCC 25618 / H37Rv, H37Rv strain (ATCC25618), Middlebrook 7H9+ADC medium, six days at 37° C., resazurin fluorescence after 48 hours, read-out: MIC value.
[4] abbreviates: ATCC 25618 / H37Rv, read-out: MIC value, H37Rv strain (ATCC25618), Middlebrook 7H9+ADC medium, six days at 37° C., resazurin fluorescence after 48 hours.

The MIC is the smallest concentration in the dilution series that meets the test's criterion for growth inhibition.

Consider `O=C1CSc2ccc(CNC[C@@H]3C[C@H](O)CN(CCn4c(=O)ccc5ccc(F)cc54)C3)nc2N1` (racemic) [Example 158], for which the minimum inhibitory concentration (MIC) in assay [1] (setting [3]) was at most 4 µg/mL.
Take `O=c1cnc2ccc(F)cc2n1CCN1CC[C@H](NCc2cc3c(nn2)OCCO3)[C@H](O)C1` (single isomer, unassigned) [Example 193]: the MIC in assay [1] (setting [3]) is at most 4 µg/mL.
With `Cl.O=c1ccc2ccc(F)cc2n1CCN1CCC(NCc2cc3c(cn2)OCCO3)CC1` [Example 2, 1-(2-{4-[(2,3-dihydro[1,4]dioxino[2,3-c]pyridin-7-ylmethyl)amino]-1-piperidinyl}ethyl)-7-fluoro-2(1H)-quinolinone Hydrochloride], the MIC in assay [1] (setting [3]) is at most 4 µg/mL.
Still for that read-out and setting: the value for `O=c1ccc2ncc(F)cc2n1CCN1CCC(NCc2cc3c(cn2)OCCO3)CC1` [Example 7, 1-(2-{4-[(2,3-Dihydro[1,4]dioxino[2,3-c]pyridin-7-ylmethyl)amino]-1-piperidinyl}ethyl)-7-fluoro-1,5-naphthyridin-2(1H)-one Hydrochloride] was at most 4 µg/mL.
With `O=c1ccc2ncc(F)cc2n1CCN1CCC(NCc2cc3c(nn2)OCCO3)CC1` [Example 9, Hydrochloride], the MIC in assay [1] (ATCC25618|H37RV, H37Rv strain (ATCC25618), Middlebrook 7H9+ADC medium, six days at 37° C., resazurin fluorescence after 48 hours, read-out: MIC value) was at most 4 µg/mL.
On to `COc1ccc2ccc(=O)n(CCN3CCC(NCc4cc5c(nn4)OCCO5)CC3)c2n1` [Example 17, 1-(2-{4-[(6,7-dihydro[1,4]dioxino[2,3-c]pyridazin-3-ylmethyl)amino]-1-piperidinyl}ethyl)-7-(methyloxy)-1,8-naphthyridin-2(1H)-one Dihydrochloride], for which the MIC in assay [1] (setting [3]) was at most 4 µg/mL.
On the same count and under the same terms, the value for `O=c1cnc2ccc(F)cc2n1CCN1CCC(NCc2cc3c(cn2)OCCO3)CC1` [Example 20, 1-(2-{4-[(2,3-dihydro[1,4]dioxino[2,3-c]pyridin-7-ylmethyl)amino]-1-piperidinyl}ethyl)-7-fluoro-2(1H)-quinoxalinone Dihydrochloride] was at most 4 µg/mL; that for `COc1ccc2ncc(=O)n(CCN3CCC(NCc4cc5c(cn4)OCCO5)CC3)c2n1` [Example 37, 4-(2-{4-[(2,3-dihydro[1,4]dioxino[2,3-c]pyridin-7-ylmethyl)amino]-1-piperidinyl}ethyl)-6-(methyloxy)pyrido[2,3-b]pyrazin-3(4H)-one Dihydrochloride] was at most 4 µg/mL; that for `O=c1cnc2ccc(F)cc2n1CCN1CCC(NCc2cc3c(cn2)OCC3)CC1` [Example 38, 1-(2-{4-[(2,3-dihydrofuro[2,3-c]pyridin-5-ylmethyl)amino]-1-piperidinyl}ethyl)-7-fluoro-2(1H)-quinoxalinone Dihydrochloride] was at most 4 µg/mL.
Consider `COc1cnc2ncc(=O)n(CCN3CCC(NCc4cc5c(cn4)OCCO5)CC3)c2c1.O=CO.O=CO` [Example 51B, 1-(2-{4-[(2,3-dihydro[1,4]dioxino[2,3-c]pyridin-7-ylmethyl)amino]-1-piperidinyl}ethyl)-7-(methyloxy)pyrido[2,3-b]pyrazin-2(1H)-one diformate], for which, in assay [1] (setting [3]), the MIC was at most 4 µg/mL.
With `COc1ccc2ccc(=O)n(CCN3C[C@@H](CNCc4ccc5c(n4)NC(=O)CO5)[C@@H](O)C3)c2c1` [Example 53, 6-({[((3R,4R)-4-hydroxy-1-{2-[7-(methyloxy)-2-oxo-1(2H)-quinolinyl]ethyl}-3-pyrrolidinyl)methyl]amino}methyl)-2H-pyrido[3,2-b][1,4]oxazin-3(4H)-one dihydrochloride], the minimum inhibitory concentration (MIC) in assay [1] (setting [4]) is at most 4 µg/mL.
`O=c1ccc2c(F)cc3c(c2n1CCN1CCC(NCc2cc4c(cn2)OCCO4)CC1)OCCO3` [Example 57, 10-(2-{4-[(2,3-dihydro[1,4]dioxino[2,3-c]pyridin-7-ylmethyl)amino]-1-piperidinyl}ethyl)-6-fluoro-2,3-dihydro[1,4]dioxino[2,3-h]quinolin-9(10H)-one hydrochloride]: the MIC in assay [1] (setting [4]) was at most 4 µg/mL.
Still for that read-out and setting: the value for `COc1ccc2ccc(=O)n(CCN3C[C@H](CNCc4cc5c(cn4)OCCO5)[C@H](O)C3)c2c1` [Example 74, 1-[2-((3S,4S)-3-{[(2,3-dihydro[1,4]dioxino[2,3-c]pyridin-7-ylmethyl)amino]methyl}-4-hydroxy-1-pyrrolidinyl)ethyl]-7-(methyloxy)-2(1H)-quinolinone Hydrochloride] was at most 4 µg/mL.
Regarding `O=c1cnc2c(F)cc(F)cc2n1CCN1CCC(NCc2cc3c(nn2)OCCO3)CC1` [Example 120], in assay [1] (setting [3]), the MIC is at most 4 µg/mL.
As for `Cc1cc(=O)n(CCN2CCC(NCc3cc4c(cn3)OCCO4)CC2)c2cc(F)ccc12` [Example 131, 1-(2-{4-[(2,3-Dihydro[1,4]dioxino[2,3-c]pyridin-7-ylmethyl)amino]-1-piperidinyl}ethyl)-7-fluoro-4-methyl-2(1H)-quinolinone Dihydrochloride], the MIC in assay [1] (setting [4]) was at most 4 µg/mL.
For the compound `O=c1ccc2ccc(F)cc2n1CCN1CC[C@@H](O)[C@@H](CNCc2cc3c(cn2)OCCO3)C1` [Example 138, 1-[2-((3S,4R)-3-{[(2,3-Dihydro[1,4]dioxino[2,3-c]pyridin-7-ylmethyl)amino]methyl}-4-hydroxy-1-piperidinyl)ethyl]-7-fluoro-2(1H)-quinolinone Dihydrochloride], the MIC in assay [1] (setting [4]) was at most 4 µg/mL.
For the compound `O=c1c(F)cc2ccc(F)cc2n1CCN1CCC(NCc2cc3c(cn2)OCCO3)CC1` [Example 180], in assay [1] (setting [3]), the minimum inhibitory concentration (MIC) is at most 4 µg/mL.
`CC(C)(O)c1c(F)cnc2ccc(=O)n(CCN3CCC(NCc4ccc5c(n4)NC(=O)CO5)CC3)c12` [Example 183]: in assay [2], the MIC is 16 µg/mL.
As for `COc1ccc2ncc(=O)n(CCN3C[C@H](CNCc4cc5c(cn4)OCCO5)[C@@H](O)C3)c2n1` [Example 225], the MIC in assay [1] (setting [3]) is at most 4 µg/mL.
Still for that read-out and setting: then `COc1ccc2ncc(=O)n(CCN3C[C@H](CNCc4cc5c(cn4)OCCO5)[C@H](O)C3)c2c1` [Example 226], with at most 4 µg/mL.
Regarding `COc1ccc2ncc(=O)n(CCN3C[C@H](CNCc4ccn5ccc(=O)nc5c4)[C@H](O)C3)c2n1` [Example 272], in assay [2], the MIC is above 16 µg/mL.
Turning to `O=c1ccc2ncccc2n1CCN1CCC(NCc2cc3ccccc3o2)CC1` [Example 282], in assay [1] (setting [3]), the MIC is at most 4 µg/mL.
On to `O=c1ccc2ccc(F)cc2n1CCN1CCC(NCc2nc3ccccc3s2)CC1` [Example 287], for which the MIC in assay [1] (setting [3]) is at most 4 µg/mL.
As for `O=c1ccc2ccccc2n1CCN1CCC(NCc2cc3ccccc3o2)CC1` [Example 288], the MIC in assay [1] (setting [3]) is at most 4 µg/mL.
Turning to `O=c1ccc2ccccc2n1CCN1CCC(NCc2cc3cc(Cl)ccc3s2)CC1` [Example 289], the MIC in assay [1] (setting [3]) was at most 4 µg/mL.
Turning to `COc1ccc2ccc(=O)n(CCN3CCC(NCc4ccc5nnn(C)c5c4)CC3)c2c1` [Example 302], the minimal inhibitory concentration (MIC) in assay [1] (setting [3]) was at most 4 µg/mL.
